According to patent US20250066724A1, “GENERATION OF HUMAN SPINAL CORD NEURAL STEM CELLS” (THE REGENTS OF THE UNIVERSITY OF CALIFORNIA, priority 2023, published 2025):

Tests used:
[1] = system: neurons differentiated from H9-derived spinal cord NSCs; assay: Whole-cell patch clamp electrophysiology of neurons differentiated from H9-derived spinal cord NSCs; settings: spontaneous postsynaptic currents, all three drugs
[2] = system: SOX1+/SOX2+/Nestin+ NSCs; assay: Long-term maintenance culture of spinal cord NSCs; assay type: cell-based, human; settings: due to differentiation, data not shown

Molecule	spiking of neuron after glutamate receptor and GABA-A receptor antagonists [1]	culture maintenance over time on omission of the component from maintenance medium [2]
N[C@@H](CCCP(=O)(O)O)C(=O)O [APV]	no change in spiking	–
Cc1c[nH]c(-c2cnc(NCCNc3ccc(C#N)cn3)nc2-c2ccc(Cl)cc2Cl)n1 [CHIR, CHIR99021]	–	failure to sustain cultures
O=[N+]([O-])c1cc2nc(O)c(O)nc2cc1[N+](=O)[O-] [DNQX]	no change in spiking	–
CNC1CCC(N(Cc2cccc(-c3ccncc3)c2)C(=O)c2sc3c(F)ccc(F)c3c2Cl)CC1 (centres unmarked) [Hh-Ag1.5]	–	failure to sustain cultures
picrotoxin	no change in spiking	–
